Consider eleven compounds from patent US7030143B2, “Heterocyclic compounds” (Nippon Shinyaku Co., Ltd., priority 2000, dated 2006).

The subject of this experiment is KK-A^y mice. Briefly: Effects on carbohydrate and lipid metabolism in KK-A^y mouse. The note with it: oral, 4 days; for Percent change of each parameter compared to control group (%): AI: Atherogenic Index = (TC − HDL-C)/HDL-C; for Percent change of each parameter compared to control group (%): BG: plasma glucose level; for Percent change of each parameter compared to control group (%): Ins: plasma insulin level; for Percent change of each parameter compared to control group (%): TG: plasma triglyceride level; for Percent change of each parameter compared to control group (%): HDL-C: serum HDL-C level; for Percent change of each parameter compared to control group (%): (V)LDL-C: sum of VLDL-C and LDL-C level in serum. It is filed as in vivo. How it is done:
The experiment was conducted using the compounds described in the Examples as test compounds and Troglitazone (5-[4-(6-hydroxy-2,5,7,8-tetramethylchroman-2-ylmethoxy)benzyl]-2,4-thiazolidinedione) as a control compound.
Each test compound was orally administered to KK-A^y mice (10 week old, male), NIDDM model animal, for 4 days at a given dosage. On the next day of the last administration, blood was collected from tail end blood vessels under non-fasting conditions to prepare heparinized plasma. Thereafter, blood was collected from an abdominal large vein under pentobarbital anesthesia to prepare serum. The glucose level (BG), triglyceride level (TG) and insulin level (Ins) in plasma were measured using a glucose CII-test Wako (Wako Pure Chemical Industries, Ltd), CLINTECH TG-S (IATORON LABORATORIES, INC.) or triglyceride E-test WAKO (Wako Pure Chemical Industries, Ltd), and a rat insulin measurement kit (Morinaga Biochemistry Research Institute) or REBIS-insulin-mouse-T (Mouse Insulin ELISA (TMB) KIT, Shibayagi Co., Ltd), respectively. Also, the sum of VLDL-C level and LDL-C level in serum (hereinafter, referred to as “(V)LDL-C”), total cholesterol level (TC) and HDL-C level were measured using a high performance liquid chromatography system for the measurement of lipoprotein cholesterol (TOSOH CORPORATION). (V)LDL-C level was measured because VLDL-C and LDL-C cannot be measured separately. Atherogenic Index (AI) was calculated according to the following formula: AI=[(TC level)−(HDL-C level)]/(HDL-C level).

As for `Cc1oc(-c2ccccc2)nc1CCCCC1COC(C)(C(=O)O)OC1` (stereo not drawn) [Example 9, 2-Methyl-c-5-[4-(5-methyl-2-phenyloxazol-4-yl)butyl]-1,3-dioxane-r-2-carboxylic acid], where the note is “dose 1 mg/kg”, the “Percent change of each parameter compared to control group (%): AI” value (shortened to “Percent change of each parameter … (%): AI”) was −49%, the “Percent change of each parameter compared to control group (%): BG” value (“Percent change of each parameter … (%): BG” below) is recorded as −12%, the “Percent change of each parameter compared to control group (%): Ins” value (from here on “Percent change of each parameter … (%): Ins”) is −36% and the “Percent change of each parameter compared to control group (%): TG” value (“Percent change of each parameter … (%): TG” below) was −46%. Besides, for the setting “dose 1 mg/kg”, the “Percent change of each parameter compared to control group (%): HDL-C” value (from here on “Percent change of each parameter … (%): HDL-C”) came out at 36% and the “Percent change of each parameter compared to control group (%): (V)LDL-C” value (from here on “Percent change of each parameter … (%): (V)LDL-C”) was −29%.

Regarding `Cc1ccc(-c2nc(CCCCC3COC(C)(C(=O)O)OC3)c(C)o2)cc1` (stereo not drawn) [Example 11, 2-Methyl-c-5-{4-[5-methyl-2-(p-tolyl)oxazol-4-yl]butyl}-1,3-dioxane-r-2-carboxylic acid], for the setting “dose 3 mg/kg”, the “Percent change of each parameter … (%): AI” value is −91%, the “Percent change of each parameter … (%): BG” value is on record as −36%, the “Percent change of each parameter … (%): Ins” value is on record as −16% and the “Percent change of each parameter … (%): TG” value is −83%. Further, for the setting “dose 3 mg/kg”, the “Percent change of each parameter … (%): HDL-C” value amounted to 11% and the “Percent change of each parameter … (%): (V)LDL-C” value is given as −89%.

As to `CC1(C(=O)O)OCC(CCCCc2coc(-c3ccccc3)n2)CO1` (stereo not drawn) [Example 14, 2-Methyl-c-5-[4-(2-phenyloxazol-4-yl)butyl]-1,3-dioxane-r-2-carboxylic acid], for the setting “dose 1 mg/kg”, the “Percent change of each parameter … (%): AI” value is on record as −45%, the “Percent change of each parameter … (%): BG” value is listed as −22%, the “Percent change of each parameter … (%): Ins” value is given as −67% and the “Percent change of each parameter … (%): TG” value is reported as −29%. For the same compound, for the setting “dose 1 mg/kg”, the “Percent change of each parameter … (%): HDL-C” value is listed as 19% and the “Percent change of each parameter … (%): (V)LDL-C” value was −38%.

On to `Cc1oc(-c2ccc(C(C)(C)C)cc2)nc1CCCCC1COC(C)(C(=O)O)OC1` (stereo not drawn) [Example 18, c-5-{4-[2-(4-tert-Butylphenyl)-5-methyloxazol-4-yl]butyl}-2-methyl-1,3-dioxane-r-2-carboxylic acid], for which, for the setting “dose 3 mg/kg”, the “Percent change of each parameter … (%): AI” value was −65%, the “Percent change of each parameter … (%): BG” value is recorded as −12%, the “Percent change of each parameter … (%): Ins” value is −1% and the “Percent change of each parameter … (%): TG” value was −43%. Further, for the setting “dose 3 mg/kg”, the “Percent change of each parameter … (%): HDL-C” value is recorded as 76% and the “Percent change of each parameter … (%): (V)LDL-C” value is recorded as −20%.

As for `Cc1oc(-c2ccc(C(F)(F)F)cc2)nc1CCCCC1COC(C)(C(=O)O)OC1` (stereo not drawn) [Example 20, 2-Methyl-c-5-{4-[5-methyl-2-(4-trifluoromethylphenyl)-oxazol-4-yl]butyl}-1,3-dioxane-r-2-carboxylic acid], under “dose 1 mg/kg”, the “Percent change of each parameter … (%): AI” value is −44%, the “Percent change of each parameter … (%): BG” value is −15%, the “Percent change of each parameter … (%): Ins” value was −44% and the “Percent change of each parameter … (%): TG” value is on record as −31%. Moreover, under “dose 1 mg/kg”, the “Percent change of each parameter … (%): HDL-C” value was found to be 30% and the “Percent change of each parameter … (%): (V)LDL-C” value is −33%.

In the case of `CCC1(C(=O)O)OCC(CCCCc2nc(-c3ccccc3)oc2C)CO1` (stereo not drawn) [Example 21, 2-Ethyl-c-5-[4-(5-methyl-2-phenyloxazol-4-yl)butyl]-1,3-dioxane-r-2-carboxylic acid], under “dose 3 mg/kg”, the “Percent change of each parameter … (%): AI” value was −38%, the “Percent change of each parameter … (%): BG” value is −18%, the “Percent change of each parameter … (%): Ins” value was −26% and the “Percent change of each parameter … (%): TG” value is −52%. Moreover, where the note is “dose 3 mg/kg”, the “Percent change of each parameter … (%): HDL-C” value was determined as 5% and the “Percent change of each parameter … (%): (V)LDL-C” value is on record as −26%.

In the case of `Cc1ccc(-c2nc(CCCCCCOC(C)(C)C(=O)O)c(C)o2)cc1` [Example 37, 2-Methyl-2-{6-[5-methyl-2-(p-tolyl)oxazol-4-yl]hexyloxy}propionic acid], for the setting “dose 3 mg/kg”, the “Percent change of each parameter … (%): AI” value is given as −70%, the “Percent change of each parameter … (%): BG” value is −5%, the “Percent change of each parameter … (%): Ins” value is −27% and the “Percent change of each parameter … (%): TG” value is −51%. In addition, where the note is “dose 3 mg/kg”, the “Percent change of each parameter … (%): HDL-C” value is 33% and the “Percent change of each parameter … (%): (V)LDL-C” value was −54%.

Take `Cc1oc(-c2ccccc2)nc1CC#CCCCOC(C)(C)C(=O)O` [Example 38, 2-Methyl-2-[6-(5-methyl-2-phenyloxazol-4-yl)-4-hexynyloxy]propionic acid]: where the note is “dose 1 mg/kg”, the “Percent change of each parameter … (%): AI” value is on record as −65%, the “Percent change of each parameter … (%): BG” value is recorded as −21%, the “Percent change of each parameter … (%): Ins” value is listed as −39% and the “Percent change of each parameter … (%): TG” value is on record as −50%. Moreover, where the note is “dose 1 mg/kg”, the “Percent change of each parameter … (%): HDL-C” value was found to be 38% and the “Percent change of each parameter … (%): (V)LDL-C” value is recorded as −38%.

For `Cc1oc(-c2ccc(Cl)cc2)nc1CCCCCCOC(C)(C)C(=O)O` [Example 39, 2-{6-[2-(4-Chlorophenyl)-5-methyloxazol-4-yl]hexyloxy}-2-methylpropionic acid], under “dose 1 mg/kg”, the “Percent change of each parameter … (%): AI” value is −73%, the “Percent change of each parameter … (%): BG” value is given as −14%, the “Percent change of each parameter … (%): Ins” value is −20% and the “Percent change of each parameter … (%): TG” value is on record as −56%. Also, where the note is “dose 1 mg/kg”, the “Percent change of each parameter … (%): HDL-C” value turned out to be 36% and the “Percent change of each parameter … (%): (V)LDL-C” value is listed as −53%.

Regarding `Cc1oc(-c2ccccc2)nc1/C=C/CCC1COC(C)(C(=O)O)OC1` (stereo not drawn) [Example 53, 2-Methyl-c-5-[4-(5-methyl-2-phenyloxazol-4-yl)-(E)-3-butenyl]-1,3-dioxane-r-2-carboxylic acid], for the setting “dose 3 mg/kg”, the “Percent change of each parameter … (%): AI” value was −62%, the “Percent change of each parameter … (%): BG” value is given as −46%, the “Percent change of each parameter … (%): Ins” value is on record as −37% and the “Percent change of each parameter … (%): TG” value was −51%. For the same compound, where the note is “dose 3 mg/kg”, the “Percent change of each parameter … (%): HDL-C” value is 3% and the “Percent change of each parameter … (%): (V)LDL-C” value is recorded as −49%.

On to `Cc1oc(-c2ccccc2)nc1C/C=C/CCCOC(C)(C)C(=O)O` [Example 54, Potassium 2-methyl-2-[6-(5-methyl-2-phenyloxazol-4-yl)-(E)-4-hexenyloxy]propionate], for which, under “dose 1 mg/kg”, the “Percent change of each parameter … (%): AI” value is −83%, the “Percent change of each parameter … (%): BG” value is on record as −24%, the “Percent change of each parameter … (%): Ins” value is recorded as −14% and the “Percent change of each parameter … (%): TG” value is given as −72%. In addition, under “dose 1 mg/kg”, the “Percent change of each parameter … (%): HDL-C” value was 24% and the “Percent change of each parameter … (%): (V)LDL-C” value was −77%.
